Test results published in publication PMC11813896, “Bis(7)-harmine derivatives as potential multi-target anti-Alzheimer agents” (Frontiers in Chemistry, 2025).

What follows are compounds tested against hAChE (Homo sapiens, UniProt P22303) (assay: biochemical). Settings: not given.
Method: 50 μL of hAChE (0.02 unit/mL) or hBChE (0.02 unit/mL) were incubated with 10 μL of the compound in 96-well plates at 37°C for 6 min. Subsequently, 30 μL of a substrate solution containing acetylthiocholine iodide (ATCI) or butyrylthiocholine iodide (BTCI) at a concentration of 0.01 M was added, and the mixture was further incubated at 37°C for an additional duration of 12 min.

Sequence of hAChE (P22303 32-614): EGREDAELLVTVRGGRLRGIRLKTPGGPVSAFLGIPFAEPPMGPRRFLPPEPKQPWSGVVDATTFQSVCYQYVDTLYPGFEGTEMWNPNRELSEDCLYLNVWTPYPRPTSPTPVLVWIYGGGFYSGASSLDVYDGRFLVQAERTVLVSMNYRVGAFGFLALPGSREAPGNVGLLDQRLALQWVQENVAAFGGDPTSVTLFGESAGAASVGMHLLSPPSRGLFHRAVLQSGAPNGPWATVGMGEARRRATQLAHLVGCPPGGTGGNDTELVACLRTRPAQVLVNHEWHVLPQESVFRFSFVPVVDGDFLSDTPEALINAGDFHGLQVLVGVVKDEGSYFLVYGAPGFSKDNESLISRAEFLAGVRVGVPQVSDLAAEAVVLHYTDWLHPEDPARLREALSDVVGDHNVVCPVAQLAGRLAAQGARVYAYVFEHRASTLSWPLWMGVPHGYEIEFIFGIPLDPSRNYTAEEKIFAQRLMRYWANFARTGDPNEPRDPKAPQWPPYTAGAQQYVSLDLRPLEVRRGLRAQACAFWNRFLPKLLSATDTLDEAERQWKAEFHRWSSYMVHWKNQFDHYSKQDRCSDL

Row | SMILES | S.I. Selectivity index IC50(hBuChE)/IC50(hAChE)
1 | CCn1c2cc(OCCCCOc3ccc4c5ccnc(C)c5n(CC)c4c3)ccc2c2ccnc(C)c21 [Compound 4b, 1,4-bis ((9-ethyl-1-methyl-9H-pyrido [3,4-b]indol-7-yl)oxy)butane] | >9.9
2 | CCCn1c2cc(OCCCCOc3ccc4c5ccnc(C)c5n(CCC)c4c3)ccc2c2ccnc(C)c21 [Compound 4c, 1,4-bis ((1-methyl-9-propyl-9H-pyrido [3,4-b]indol-7-yl)oxy)butane] | 10.2
3 | Cc1nccc2c3ccc(OCCCCCOc4ccc5c6ccnc(C)c6n(C)c5c4)cc3n(C)c12 [Compound 5a, 1,5-bis ((1,9-dimethyl-9H-pyrido [3,4-b]indol-7-yl)oxy)pentane] | 0.3

Same assay, conditions: Mean ± SD from 3-5 assays; read-out: IC50 (nM) for cholinesterase hAChE

Row | SMILES | IC50
4 | CCn1c2cc(OCCCCOc3ccc4c5ccnc(C)c5n(CC)c4c3)ccc2c2ccnc(C)c21 [Compound 4b, 1,4-bis ((9-ethyl-1-methyl-9H-pyrido [3,4-b]indol-7-yl)oxy)butane] | 101 ± 6.8 nM
5 | CCCn1c2cc(OCCCCOc3ccc4c5ccnc(C)c5n(CCC)c4c3)ccc2c2ccnc(C)c21 [Compound 4c, 1,4-bis ((1-methyl-9-propyl-9H-pyrido [3,4-b]indol-7-yl)oxy)butane] | 68 ± 5.1 nM
6 | Cc1nccc2c3ccc(OCCCCCOc4ccc5c6ccnc(C)c6n(C)c5c4)cc3n(C)c12 [Compound 5a, 1,5-bis ((1,9-dimethyl-9H-pyrido [3,4-b]indol-7-yl)oxy)pentane] | 827 ± 41.5 nM

Each compound was assayed against T1, recombinant hMAO-B (Homo sapiens, UniProt P27338) (assay: biochemical). Settings: compound at 1 μM; read-out: inhibition of hMAO-B in primary screening.
T1 construct: purchased Sigma-Aldrich
T1 sequence (P27338 1-520): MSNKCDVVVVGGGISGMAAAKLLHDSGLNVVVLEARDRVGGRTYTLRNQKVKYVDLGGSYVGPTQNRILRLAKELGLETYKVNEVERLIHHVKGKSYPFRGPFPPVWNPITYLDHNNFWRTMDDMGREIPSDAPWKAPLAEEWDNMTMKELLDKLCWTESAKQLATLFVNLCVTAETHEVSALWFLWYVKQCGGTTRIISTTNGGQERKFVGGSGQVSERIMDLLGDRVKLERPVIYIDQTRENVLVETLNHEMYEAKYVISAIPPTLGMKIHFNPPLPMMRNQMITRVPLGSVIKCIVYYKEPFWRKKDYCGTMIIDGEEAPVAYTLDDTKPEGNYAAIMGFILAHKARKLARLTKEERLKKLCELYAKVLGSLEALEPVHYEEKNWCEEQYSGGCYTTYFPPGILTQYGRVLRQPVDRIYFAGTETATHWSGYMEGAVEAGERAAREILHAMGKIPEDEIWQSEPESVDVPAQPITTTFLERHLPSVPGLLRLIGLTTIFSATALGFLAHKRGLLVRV
Method: (§1) Briefly, the compounds under investigation and the reference inhibitor were preincubated with kynuramine at 37°C for 10 min in 96-well microplates. […] The enzymatic reactions were terminated by adding 400 μL of 2 N NaOH and 1,000 μL of water, followed by centrifugation at 16,000 g for 10 min. Subsequently, the concentrations of MAOs that produced 4-hydroxyquinoline were determined by measuring the fluorescence of the supernatant using a Varioskan Flash Multimode Reader ([…]) with excitation and emission wavelengths set at 310 nm and 400 nm, respectively. The IC50 values were calculated from dose-response curves and expressed as the mean ± standard deviation. These values were determined based on at least three independent experiments, each performed in triplicate.

Row | SMILES | inhibition at 1 µM
7 | CCn1c2cc(OCCCCOc3ccc4c5ccnc(C)c5n(CC)c4c3)ccc2c2ccnc(C)c21 [Compound 4b, 1,4-bis ((9-ethyl-1-methyl-9H-pyrido [3,4-b]indol-7-yl)oxy)butane] | 28.6%
8 | CCCn1c2cc(OCCCCOc3ccc4c5ccnc(C)c5n(CCC)c4c3)ccc2c2ccnc(C)c21 [Compound 4c, 1,4-bis ((1-methyl-9-propyl-9H-pyrido [3,4-b]indol-7-yl)oxy)butane] | 17.8%
9 | Cc1nccc2c3ccc(OCCCCCOc4ccc5c6ccnc(C)c6n(C)c5c4)cc3n(C)c12 [Compound 5a, 1,5-bis ((1,9-dimethyl-9H-pyrido [3,4-b]indol-7-yl)oxy)pentane] | 25.6%

The compounds below were run against T2, recombinant hMAO-A (Homo sapiens, UniProt P21397) (assay: biochemical). Settings: not given.
T2 construct: purchased Sigma-Aldrich
T2 sequence (P21397 1-527): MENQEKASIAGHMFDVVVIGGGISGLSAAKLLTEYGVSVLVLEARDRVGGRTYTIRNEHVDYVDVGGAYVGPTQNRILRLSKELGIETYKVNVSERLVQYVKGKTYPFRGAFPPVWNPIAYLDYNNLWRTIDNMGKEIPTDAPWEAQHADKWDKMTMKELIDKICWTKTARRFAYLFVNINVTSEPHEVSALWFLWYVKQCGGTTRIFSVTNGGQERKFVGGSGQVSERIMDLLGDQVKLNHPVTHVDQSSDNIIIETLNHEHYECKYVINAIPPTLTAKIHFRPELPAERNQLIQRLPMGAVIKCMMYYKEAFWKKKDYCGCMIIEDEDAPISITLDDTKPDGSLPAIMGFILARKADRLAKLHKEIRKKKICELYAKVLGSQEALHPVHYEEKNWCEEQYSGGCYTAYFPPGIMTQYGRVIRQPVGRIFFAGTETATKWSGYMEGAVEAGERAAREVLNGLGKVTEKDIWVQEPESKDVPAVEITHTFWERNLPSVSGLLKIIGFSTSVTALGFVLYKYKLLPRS
Method: as §1

Row | SMILES | S.I. Selectivity index IC50(hMAO-B)/IC50(hMAO-A)
10 | CCn1c2cc(OCCCCOc3ccc4c5ccnc(C)c5n(CC)c4c3)ccc2c2ccnc(C)c21 [Compound 4b, 1,4-bis ((9-ethyl-1-methyl-9H-pyrido [3,4-b]indol-7-yl)oxy)butane] | >1.4
11 | Cc1nccc2c3ccc(OCCCCCOc4ccc5c6ccnc(C)c6n(C)c5c4)cc3n(C)c12 [Compound 5a, 1,5-bis ((1,9-dimethyl-9H-pyrido [3,4-b]indol-7-yl)oxy)pentane] | >4.1

Same assay, conditions: compound at 1 μM; read-out: inhibition of hMAO-A in primary screening

Row | SMILES | inhibition at 1 µM
12 | CCCn1c2cc(OCCCCOc3ccc4c5ccnc(C)c5n(CCC)c4c3)ccc2c2ccnc(C)c21 [Compound 4c, 1,4-bis ((1-methyl-9-propyl-9H-pyrido [3,4-b]indol-7-yl)oxy)butane] | 48.6%

Same assay, conditions: mean ± SD; read-out: IC50 (nM) for monoamine oxidases hMAO-A

Row | SMILES | IC50
13 | CCn1c2cc(OCCCCOc3ccc4c5ccnc(C)c5n(CC)c4c3)ccc2c2ccnc(C)c21 [Compound 4b, 1,4-bis ((9-ethyl-1-methyl-9H-pyrido [3,4-b]indol-7-yl)oxy)butane] | 686 ± 43.5 nM
14 | Cc1nccc2c3ccc(OCCCCCOc4ccc5c6ccnc(C)c6n(C)c5c4)cc3n(C)c12 [Compound 5a, 1,5-bis ((1,9-dimethyl-9H-pyrido [3,4-b]indol-7-yl)oxy)pentane] | 241 ± 13.8 nM

What follows are compounds tested against Aβ 1−42 (Homo sapiens, UniProt P05067) (assay: Thioflavin T fluorescence assay, Aβ 1−42 self-aggregation). Settings: compound at 20 μM.
Assay type: biochemical
Method: The thioflavin T (Th-T) fluorescence assay was used to assess the inhibition of Aβ 1−42 self-aggregation. […] Subsequently, the reaction was terminated to a final volume of 200 μL using Th-T (10 μM) solution.

Sequence of Aβ 1−42 (P05067 672-713 limits assumed): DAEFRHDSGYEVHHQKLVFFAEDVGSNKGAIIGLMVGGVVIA

Row | SMILES | inhibition percent ratio of self-induced Aβ 1-42 aggregation
15 | CCn1c2cc(OCCCCOc3ccc4c5ccnc(C)c5n(CC)c4c3)ccc2c2ccnc(C)c21 [Compound 4b, 1,4-bis ((9-ethyl-1-methyl-9H-pyrido [3,4-b]indol-7-yl)oxy)butane] | 27.6%
16 | CCCn1c2cc(OCCCCOc3ccc4c5ccnc(C)c5n(CCC)c4c3)ccc2c2ccnc(C)c21 [Compound 4c, 1,4-bis ((1-methyl-9-propyl-9H-pyrido [3,4-b]indol-7-yl)oxy)butane] | 33.2%
17 | Cc1nccc2c3ccc(OCCCCCOc4ccc5c6ccnc(C)c6n(C)c5c4)cc3n(C)c12 [Compound 5a, 1,5-bis ((1,9-dimethyl-9H-pyrido [3,4-b]indol-7-yl)oxy)pentane] | 40.6%

These compounds were tested against hBuChE (Homo sapiens, UniProt P06276) (assay: Ellman's assay, hBuChE inhibition). Settings: Mean ± SD from 3-5 assays; read-out: IC50 (nM) for cholinesterase hBuChE.
Assay type: biochemical
Method: The Ellman’s assay was utilized to assess the inhibitory potential of novel bis(7)-harmine derivatives against hAChE and hBuChE. 50 μL of hAChE (0.02 unit/mL) or hBChE (0.02 unit/mL) were incubated with 10 μL of the compound in 96-well plates at 37°C for 6 min. Subsequently, 30 μL of a substrate solution containing acetylthiocholine iodide (ATCI) or butyrylthiocholine iodide (BTCI) at a concentration of 0.01 M was added, and the mixture was further incubated at 37°C for an additional duration of 12 min. Finally, the activity was measured by adding 150 μL of a solution containing 5,5′−dithiobis (2-nitrobenzoic acid) (DTNB) at a concentration of 0.01 M, followed by measuring absorbance at a wavelength of 415 nm using an Evolution 300 PC UV-Vis Spectrophotometer.

Sequence of hBuChE (P06276 29-602): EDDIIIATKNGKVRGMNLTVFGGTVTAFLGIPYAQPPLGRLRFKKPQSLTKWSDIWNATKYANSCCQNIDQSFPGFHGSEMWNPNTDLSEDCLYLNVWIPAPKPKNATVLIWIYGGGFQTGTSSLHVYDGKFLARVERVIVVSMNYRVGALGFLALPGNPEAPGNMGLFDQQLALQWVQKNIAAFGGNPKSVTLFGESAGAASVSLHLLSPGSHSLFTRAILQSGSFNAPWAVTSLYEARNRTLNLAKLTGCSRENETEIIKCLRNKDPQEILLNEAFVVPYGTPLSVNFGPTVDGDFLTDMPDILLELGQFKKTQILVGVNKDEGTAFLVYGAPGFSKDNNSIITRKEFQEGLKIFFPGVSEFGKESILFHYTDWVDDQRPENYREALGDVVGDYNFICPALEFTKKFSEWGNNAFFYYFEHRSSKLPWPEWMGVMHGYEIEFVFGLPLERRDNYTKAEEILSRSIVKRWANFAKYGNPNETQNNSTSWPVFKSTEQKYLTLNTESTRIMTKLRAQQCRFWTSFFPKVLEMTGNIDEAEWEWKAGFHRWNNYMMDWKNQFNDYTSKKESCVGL

Row | SMILES | IC50
18 | CCCn1c2cc(OCCCCOc3ccc4c5ccnc(C)c5n(CCC)c4c3)ccc2c2ccnc(C)c21 [Compound 4c, 1,4-bis ((1-methyl-9-propyl-9H-pyrido [3,4-b]indol-7-yl)oxy)butane] | 694 ± 43.2 nM
19 | Cc1nccc2c3ccc(OCCCCCOc4ccc5c6ccnc(C)c6n(C)c5c4)cc3n(C)c12 [Compound 5a, 1,5-bis ((1,9-dimethyl-9H-pyrido [3,4-b]indol-7-yl)oxy)pentane] | 256 ± 15.7 nM

Same assay, conditions: compound at 1 μM; read-out: inhibition of hBuChE in primary screening

Row | SMILES | inhibition at 1 µM
20 | CCn1c2cc(OCCCCOc3ccc4c5ccnc(C)c5n(CC)c4c3)ccc2c2ccnc(C)c21 [Compound 4b, 1,4-bis ((9-ethyl-1-methyl-9H-pyrido [3,4-b]indol-7-yl)oxy)butane] | 36.7%
